Measurements as given in patent US12685735B2 (Foghorn Therapeutics Inc., priority 2020, dated 2026).
Like-named read-outs stand apart in the source and are kept apart here.

Experiments:
BRG-1 = BRG-1 (Homo sapiens, UniProt P51532); assay: ATPase catalytic activity assay of BRG-1 (ADP-Glo); format: biochemical; conditions: ATPase catalytic activity, ADP-Glo; for IC50: read-out: BRG1 IC50 (μM)*; for Emax: read-out: BRG1 Max % Inhibition
Protocol: (§1) The ATPase catalytic activity of BRM or BRG-1 was measured by the in vitro biochemical assay using ADP-Glo™ (Promega, V9102). The ADP-Glo™ kinase assay is performed in two steps once the reaction is complete. The first step is to deplete any unconsumed ATP in the reaction. The second step is to convert the reaction product ADP to ATP, which will be utilized by the luciferase to generate luminesce and be detected by a luminescence reader, such as Envision.
(§2) Then following addition of 5 μL of ADP-Glo™ Reagent provided in the kit, the reaction incubates at room temperature for 40 minutes. Then 10 μL of Kinase Detection Reagent provided in the kit is added to convert ADP to ATP, and the reaction incubates at room temperature for 60 minutes. Finally, luminescence measurement is collected with a plate-reading luminometer, such as Envision.
as §1, with “The” for “The ATPase catalytic activity of BRM or BRG-1 was measured by the in vitro biochemical assay using ADP-Glo™ (Promega, V9102). The”

BRM = BRM (Homo sapiens, UniProt P51531); assay: ATPase catalytic activity assay of BRM (ADP-Glo); format: biochemical; conditions: for IC50: read-out: BRM IC50 (μM)*
Protocol: as §1, §2
as §1, with “The” for “The ATPase catalytic activity of BRM or BRG-1 was measured by the in vitro biochemical assay using ADP-Glo™ (Promega, V9102). The”

Chain of BRM (P51531 whole entry): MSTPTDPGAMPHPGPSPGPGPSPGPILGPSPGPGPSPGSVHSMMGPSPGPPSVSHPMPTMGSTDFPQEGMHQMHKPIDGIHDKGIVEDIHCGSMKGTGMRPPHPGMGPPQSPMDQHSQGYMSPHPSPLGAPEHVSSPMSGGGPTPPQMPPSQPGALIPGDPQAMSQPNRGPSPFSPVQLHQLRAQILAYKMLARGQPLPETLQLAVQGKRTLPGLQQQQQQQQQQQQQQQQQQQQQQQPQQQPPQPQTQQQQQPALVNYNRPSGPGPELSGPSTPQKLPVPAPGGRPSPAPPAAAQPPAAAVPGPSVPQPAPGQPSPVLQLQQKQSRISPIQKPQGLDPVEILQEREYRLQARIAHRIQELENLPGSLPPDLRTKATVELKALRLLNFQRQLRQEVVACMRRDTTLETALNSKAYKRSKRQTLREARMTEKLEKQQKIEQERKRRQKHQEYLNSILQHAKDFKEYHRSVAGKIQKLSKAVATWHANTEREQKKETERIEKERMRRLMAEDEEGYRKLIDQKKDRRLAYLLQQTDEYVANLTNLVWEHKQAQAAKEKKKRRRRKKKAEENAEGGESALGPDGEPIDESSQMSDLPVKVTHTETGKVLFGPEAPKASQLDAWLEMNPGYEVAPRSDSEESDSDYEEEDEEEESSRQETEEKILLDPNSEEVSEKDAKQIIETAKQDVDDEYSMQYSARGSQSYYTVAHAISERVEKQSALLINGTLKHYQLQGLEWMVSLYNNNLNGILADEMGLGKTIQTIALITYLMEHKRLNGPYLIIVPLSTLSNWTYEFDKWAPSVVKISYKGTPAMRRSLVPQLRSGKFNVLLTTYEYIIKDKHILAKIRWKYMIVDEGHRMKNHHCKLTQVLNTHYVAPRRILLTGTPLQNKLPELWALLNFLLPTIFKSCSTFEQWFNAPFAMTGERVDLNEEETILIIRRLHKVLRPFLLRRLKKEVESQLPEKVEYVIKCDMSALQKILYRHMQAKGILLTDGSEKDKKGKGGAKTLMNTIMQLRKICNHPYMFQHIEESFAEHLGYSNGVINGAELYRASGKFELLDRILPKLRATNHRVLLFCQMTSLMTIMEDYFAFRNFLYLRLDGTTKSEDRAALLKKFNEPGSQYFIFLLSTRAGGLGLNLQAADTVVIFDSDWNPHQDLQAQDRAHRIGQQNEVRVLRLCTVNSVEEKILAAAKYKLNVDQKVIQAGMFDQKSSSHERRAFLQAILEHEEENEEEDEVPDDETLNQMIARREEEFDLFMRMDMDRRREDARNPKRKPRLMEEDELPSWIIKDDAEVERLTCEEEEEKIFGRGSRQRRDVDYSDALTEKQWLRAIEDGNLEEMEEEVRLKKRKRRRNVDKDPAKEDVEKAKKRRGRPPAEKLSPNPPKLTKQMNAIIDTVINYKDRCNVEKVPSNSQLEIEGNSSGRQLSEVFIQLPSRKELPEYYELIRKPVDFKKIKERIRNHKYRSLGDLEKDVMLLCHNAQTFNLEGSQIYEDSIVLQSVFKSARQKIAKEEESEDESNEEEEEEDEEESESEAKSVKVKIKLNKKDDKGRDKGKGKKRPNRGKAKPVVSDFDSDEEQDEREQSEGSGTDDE
Chain of BRG-1 (P51532 whole entry): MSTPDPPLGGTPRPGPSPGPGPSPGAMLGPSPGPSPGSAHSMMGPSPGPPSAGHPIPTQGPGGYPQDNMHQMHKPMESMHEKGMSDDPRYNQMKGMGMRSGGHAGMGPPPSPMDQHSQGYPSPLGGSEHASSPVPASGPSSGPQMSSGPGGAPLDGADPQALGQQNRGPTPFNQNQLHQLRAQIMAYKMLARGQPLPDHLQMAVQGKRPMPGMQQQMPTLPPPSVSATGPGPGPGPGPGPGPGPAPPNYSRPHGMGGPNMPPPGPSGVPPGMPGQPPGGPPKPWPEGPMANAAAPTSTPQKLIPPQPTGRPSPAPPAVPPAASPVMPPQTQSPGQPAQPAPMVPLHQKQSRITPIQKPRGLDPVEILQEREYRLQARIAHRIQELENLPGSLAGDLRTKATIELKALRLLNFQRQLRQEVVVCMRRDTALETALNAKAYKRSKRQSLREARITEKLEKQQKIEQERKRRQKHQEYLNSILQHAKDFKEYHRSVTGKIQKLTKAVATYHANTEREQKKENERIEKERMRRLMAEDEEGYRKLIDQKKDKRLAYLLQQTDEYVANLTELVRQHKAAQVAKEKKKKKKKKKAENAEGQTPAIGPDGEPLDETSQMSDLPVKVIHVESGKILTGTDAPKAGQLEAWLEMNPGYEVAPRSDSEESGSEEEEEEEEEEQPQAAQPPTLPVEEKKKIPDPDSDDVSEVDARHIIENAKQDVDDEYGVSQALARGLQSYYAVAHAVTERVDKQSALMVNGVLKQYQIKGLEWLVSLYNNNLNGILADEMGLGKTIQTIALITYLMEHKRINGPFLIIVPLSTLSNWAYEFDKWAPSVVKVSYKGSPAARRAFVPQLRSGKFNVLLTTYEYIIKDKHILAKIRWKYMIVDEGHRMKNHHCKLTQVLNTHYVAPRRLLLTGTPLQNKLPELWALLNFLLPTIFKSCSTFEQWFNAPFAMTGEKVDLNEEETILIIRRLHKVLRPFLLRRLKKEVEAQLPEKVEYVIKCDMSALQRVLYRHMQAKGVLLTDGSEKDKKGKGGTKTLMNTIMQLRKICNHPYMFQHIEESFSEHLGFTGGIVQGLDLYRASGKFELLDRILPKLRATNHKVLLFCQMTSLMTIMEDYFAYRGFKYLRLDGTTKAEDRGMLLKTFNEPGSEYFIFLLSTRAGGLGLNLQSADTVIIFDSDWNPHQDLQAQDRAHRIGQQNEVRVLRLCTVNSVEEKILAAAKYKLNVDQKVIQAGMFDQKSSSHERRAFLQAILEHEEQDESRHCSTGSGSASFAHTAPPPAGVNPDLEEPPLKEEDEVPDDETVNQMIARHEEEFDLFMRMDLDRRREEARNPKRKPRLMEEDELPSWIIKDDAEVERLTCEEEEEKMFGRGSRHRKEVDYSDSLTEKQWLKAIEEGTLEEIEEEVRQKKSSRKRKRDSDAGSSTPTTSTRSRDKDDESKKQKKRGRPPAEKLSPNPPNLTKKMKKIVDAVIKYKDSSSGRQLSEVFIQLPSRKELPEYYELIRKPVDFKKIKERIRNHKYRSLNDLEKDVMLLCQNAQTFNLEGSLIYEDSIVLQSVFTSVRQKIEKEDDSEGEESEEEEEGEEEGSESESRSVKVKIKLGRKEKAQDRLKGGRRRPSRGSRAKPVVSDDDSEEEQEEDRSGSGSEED

SMILES	IC50 (BRG-1)	Emax (BRG-1)	BRM Max % Inhibition (BRM)	IC50 (BRM)	IC50 (BRG-1; 30 nM BRG-1, 400 μM ATP)	Emax (BRG-1; 30 nM BRG-1, 400 μM ATP)	BRM Max % Inhibition (BRM; 30 nM BRM, 400 μM ATP)	IC50 (BRM; 30 nM BRM, 400 μM ATP)
CCC(C)(CO)c1cccc(C(=O)NCC(=O)Nc2nc(-c3cccc(-c4ccncc4)c3)cs2)c1 (centres unmarked) [Compound 242, 3-[1-(hydroxymethyl)-1-methyl-propyl]-N-[2-oxo-2-[[4-[3-(4-pyridyl)phenyl]thiazol-2-yl]amino]ethyl]benzamide]	1 to 5 µM	> 50%	>80%	0.1 to 1 µM	–	–	–	–
CC1COCc2ccc(C(=O)NCC(=O)Nc3nc(-c4cccc(N5C[C@@H](C)O[C@@H](C)C5)n4)cs3)cc21 (stereo partly drawn) [Compound 346, N-(2-((4-(6-((cis)-2,6-dimethylmorpholino)pyridin-2-yl)thiazol-2-yl)amino)-2-oxoethyl)-4-methylisochromane-6-carboxamide]	0.1 to 1 µM	> 95%	>95%	< 0.1 µM	–	–	–	–
Cc1cc(-c2cccc(-c3csc(NC(=O)CNC(=O)c4ccc5c(c4)[C@@](C)(CN)CCC5)n3)c2)cc(C)n1 [Compound 251, (4S)-4-(aminomethyl)-N-[2-[[4-[3-(2,6-dimethyl-4-pyridyl)phenyl]thiazol-2-yl]amino]-2-oxo-ethyl]-4-methyl-tetralin-6-carboxamide]	> 5 µM	< 30%	>50%	1 to 5 µM	–	–	–	–
C[C@@H]1CN(c2cccc(-c3csc(NC(=O)CNC(=O)c4ccc5c(c4)[C@](C)(C#N)CCO5)n3)c2)C[C@H](C)O1 [Compound 172, (4R)-4-cyano-N-[2-[[4-[3-[(cis)-2,6-dimethylmorpholin-4-yl]phenyl]thiazol-2-yl]amino]-2-oxo-ethyl]-4-methyl-chromane-6-carboxamide]	< 0.1 µM	> 95%	>95%	< 0.1 µM	–	–	–	–
C[C@@H]1CN(c2cccc(-c3csc(NC(=O)CNC(=O)c4ccc5c(c4)CCOC5)n3)n2)C[C@H](C)O1 [Compound 366, N-(2-((4-(6-((cis)-2,6-dimethylmorpholino)pyridin-2-yl)thiazol-2-yl)amino)-2-oxoethyl)isochromane-6-carboxamide]	0.1 to 1 µM	> 85%	>85%	< 0.1 µM	–	–	–	–
CC(=O)NCc1cccc(-c2cccc(-c3csc(NC(=O)CNC(=O)c4cccc(S(=O)(=O)C(C)C)c4)n3)c2)c1 [Compound 111, N-(2-((4-(3′-(acetamidomethyl)-[1,1′-biphenyl]-3-yl)thiazol-2-yl)amino)-2-oxoethyl)-3-(isopropylsulfonyl) benzamide]	> 5 µM	> 40%	>90%	0.1 to 1 µM	–	–	–	–
C[C@H](NC(=O)c1cccc(C(C)(C)CN)c1)C(=O)Nc1nc(-c2cccc(-c3ccncc3)c2)cs1 [Compound 65, (S)-3-(1-amino-2-methylpropan-2-yl)-N-(1-oxo-1-((4-(3-(pyridin-4-yl)phenyl)thiazol-2-yl)amino)propan-2-yl)benzamide]	0.1 to 1 µM	> 95%	>90%	0.1 to 1 µM	–	–	–	–
C[C@@H]1CN(c2cccc(-c3csc(NC(=O)CNC(=O)c4ccc5c(c4)[C@@](C)(C#N)COC5)n3)c2)C[C@H](C)O1 [Compound 171, (S)-4-cyano-N-(2-((4-(3-((cis)-2,6-dimethylmorpholino)phenyl)thiazol-2-yl)amino)-2-oxoethyl)-4-methylisochroman-6-carboxamide]	1 to 5 µM	> 70%	>80%	0.1 to 1 µM	–	–	–	–
C[C@@H]1CN(c2cccc(-c3csc(NC(=O)CNC(=O)c4ccc5c(c4)C(C)(C#N)COC5)n3)n2)C[C@H](C)O1 (stereo in doubt) [Compound 421, (S)-4-cyano-N-(2-((4-(6-((cis)-2,6-dimethylmorpholino)pyridin-2-yl)thiazol-2-yl)amino)-2-oxoethyl)-4-methylisochromane-6-carboxamide]	–	–	–	–	> 5 µM	> 80%	>80%	1 to 5 µM
C[C@@]1(C#N)COCc2ccc(C(=O)NC3(C(=O)Nc4nc(-c5cccc(C(F)F)c5)cs4)CC3)cc21 [Compound 333, (R)-4-cyano-N-(1-((4-(3-(difluoromethyl)phenyl)thiazol-2-yl)carbamoyl)cyclopropyl)-4-methylisochromane-6-carboxamide]	1 to 5 µM	> 75%	>75%	0.1 to 1 µM	–	–	–	–
Cc1nccc(-c2cccc(-c3csc(NC(=O)CNC(=O)c4ccc5c(c4)[C@@](C)(C#N)CC5)n3)n2)n1 [Compound 268, (3S)-3-cyano-3-methyl-N-[2-[[4-[6-(2-methylpyrimidin-4-yl)-2-pyridyl]thiazol-2-yl]amino]-2-oxo-ethyl]indane-5-carboxamide]	1 to 5 µM	> 50%	>80%	0.1 to 1 µM	–	–	–	–
Cc1cc(-c2cccc(-c3csc(NC(=O)CNC(=O)c4ccc5c(c4)[C@](C)(C#N)CC5)n3)n2)ncn1 [Compound 267, (3R)-3-cyano-3-methyl-N-[2-[[4-[6-(6-methylpyrimidin-4-yl)-2-pyridyl]thiazol-2-yl]amino]-2-oxo-ethyl]indane-5-carboxamide]	< 0.1 µM	> 95%	>95%	< 0.1 µM	–	–	–	–
CC1(C)c2cc(C(=O)NCC(=O)Nc3nc(-c4cccc(-c5ccncc5)c4)cs3)ccc2C[C@H]1N [Compound 210, (R)-2-amino-3,3-dimethyl-N-(2-oxo-2-((4-(3-(pyridin-4-yl)phenyl)thiazol-2-yl)amino)ethyl)-2,3-dihydro-1H-indene-5-carboxamide]	0.1 to 1 µM	> 80%	>95%	< 0.1 µM	–	–	–	–
CC(C)(C(N)=O)c1cccc(C(=O)NCC(=O)Nc2nc(-c3cccc(-c4ccncc4)c3)cs2)c1 [Compound 84, 3-(1-amino-2-methyl-1-oxopropan-2-yl)-N-(2-oxo-2-((4-(3-(pyridin-4-yl)phenyl)thiazol-2-yl)amino)ethyl)benzamide]	1 to 5 µM	> 90%	>95%	0.1 to 1 µM	–	–	–	–
Cn1ccc2ccc(-c3csc(NC(=O)CNC(=O)c4ccc5c(c4)[C@@](C)(CO)CC5)n3)cc2c1=O [Compound 181, (S)-3-(hydroxymethyl)-3-methyl-N-(2-((4-(2-methyl-1-oxo-1,2-dihydroisoquinolin-7-yl)thiazol-2-yl)amino)-2-oxoethyl)-2,3-dihydro-1H-indene-5-carboxamide]	1 to 5 µM	> 70%	>90%	0.1 to 1 µM	–	–	–	–
Cc1ccc(C(=O)NCC(=O)Nc2nc(-c3cccc(-c4ccn(C)n4)c3)cs2)cc1S(=O)(=O)C(C)C [Compound 46, 3-(isopropylsulfonyl)-4-methyl-N-(2-((4-(3-(1-methyl-1H-pyrazol-3-yl)phenyl)thiazol-2-yl)amino)-2-oxoethyl)benzamide]	1 to 5 µM	> 60%	>95%	0.1 to 1 µM	–	–	–	–
CC(=O)N(C)c1cc(-c2cccc(-c3csc(NC(=O)CNC(=O)c4cccc(C(C)(C)CN)c4)n3)c2)ccn1 [Compound 56, 3-(1-amino-2-methylpropan-2-yl)-N-(2-((4-(3-(2-(N-methylacetamido)pyridin-4-yl)phenyl)thiazol-2-yl)amino)-2-oxoethyl)benzamide]	1 to 5 µM	> 70%	>90%	0.1 to 1 µM	–	–	–	–
